Results: patent US11873291B2, “Quinoline cGAS antagonist compounds” (ImmuneSensor Therapeutics, Inc., priority 2020, dated 2024)

Each molecule was assayed against T1, recombinant human cGAS (aa147-522) (Homo sapiens, UniProt Q8N884) (assay: In vitro inhibition assay of cGAS activity (ATP consumption, KinaseGlo Max)). Details: Table 2, read-out: cGAS Inhibition Results IC50.
T1 construct: recombinant human cGAS (aa147-522); His6-SUMO (cleaved yes); made in house; host or cells: E. coli BL21/pLys
T1 sequence (Q8N884 147-522): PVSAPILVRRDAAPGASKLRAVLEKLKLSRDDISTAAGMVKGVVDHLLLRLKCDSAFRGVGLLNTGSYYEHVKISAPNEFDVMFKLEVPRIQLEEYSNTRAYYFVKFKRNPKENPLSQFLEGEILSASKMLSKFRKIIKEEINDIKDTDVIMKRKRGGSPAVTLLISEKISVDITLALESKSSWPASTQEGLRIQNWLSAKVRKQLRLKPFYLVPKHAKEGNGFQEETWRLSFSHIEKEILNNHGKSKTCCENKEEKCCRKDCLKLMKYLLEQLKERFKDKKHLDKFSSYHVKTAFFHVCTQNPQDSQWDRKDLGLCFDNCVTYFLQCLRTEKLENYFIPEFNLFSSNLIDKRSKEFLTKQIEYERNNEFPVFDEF
Assay type: biochemical
Protocol: Expression and Purification of Recombinant cGAS Protein: cDNA encoding full-length or amino acids […] of human cGAS was inserted into a modified pET28a vector containing an in-frame His6-SUMO tag. The E. coli strain BL21/pLys harboring the plasmid was induced with 0.5 mM IPTG at 18° C. overnight. His6-SUMO tag was removed by a SUMO protease digestion following purification of the His6-SUMO-cGAS as described previously (Sun et al, 2013, Science 339, 786).
In vitro inhibition assay of cGAS activity: A 60 μL mixture containing 20 mM Tris-Cl, pH 7.5, 5 mM MgCl2, 0.2 mg/mL BSA, 0.01 mg/mL Herring testis DNA, 6.6 μM ATP, 0.1 mM GTP, 1.5 μg/mL of recombinant human cGAS (aa147-522) and serial dilutions of a test compound in DMSO was added to a 96-well plate and incubated at 37° C. for 20 minutes. At the end of reaction, 40 μL of KinaseGlo Max (Promega) was added and chemiluminescence was measured with a luminometer. Inhibitory effect of a compound is evaluated by plotting percentage of ATP consumption against logarithm of compound concentrations. IC50 value was calculated using GraphPad Prism 8 (GraphPad Software, Inc.).
The letter codes for cGAS IC50 include: A (<2 μM); B (2-30 μM); C (>30 μM).

Row | SMILES | IC50
1 | CN(CCO[PH](=O)O)c1cc(-n2ccnc2)c2ccc(Cl)c(Cl)c2n1 [I-255] | < 2 µM
2 | Clc1cc(N2CCNCC2)c2ccc(Cl)c(Cl)c2n1 [I-312] | > 30 µM
3 | O=P(O)(O)CCNc1cc(-n2ccnc2)c2ccc(Cl)c(Cl)c2n1 [I-250] | < 2 µM
4 | COC[C@@H]1CCCN1c1cc(-n2ccnc2)c2ccc(Cl)c(Cl)c2n1 [I-147] | < 2 µM
5 | C[C@H](Nc1cc(-c2cn[nH]c2)nc2c(Cl)c(Cl)ccc12)C(=O)O [I-285] | < 2 µM
6 | COC(CN(C)c1cc(-n2ccnc2)c2ccc(Cl)c(Cl)c2n1)OC [I-364] | 2 to 30 µM
7 | Brc1ccc2c(-n3cccn3)ccnc2c1 [I-414] | > 30 µM
8 | CN(CCC(=O)NCc1ccccc1)c1cc(-c2cn[nH]c2)c2ccc(Cl)c(Cl)c2n1 [I-193, N-benzyl-3-((7,8-dichloro-4-(1H-pyrazol-4-yl)quinolin-2-yl)(methyl)amino)propenamide] | 2 to 30 µM
9 | O=C(O)C1CN(c2cc(-n3ccnc3)c3ccc(Cl)c(Cl)c3n2)CCC1O (stereo not drawn) [I-332] | < 2 µM
10 | Cc1cn(-c2cc(-c3ccccc3)nc3cc(Cl)ccc23)cn1 [I-60] | > 30 µM
11 | O=S(=O)(O)CCCNc1cc(-n2ccnc2)c2ccc(Cl)c(Cl)c2n1 [I-160] | < 2 µM
12 | COc1cccc(-c2cc(-n3ccnc3)c3ccc(Br)cc3n2)c1 [I-382] | 2 to 30 µM
13 | O=C(CO)NC1(C(=O)O)CCCN(c2cc(-n3ccnc3)c3ccc(Cl)c(Cl)c3n2)C1 (stereo not drawn) [I-125, 1-(7,8-dichloro-4-(1H-imidazol-1-yl)quinolin-2-yl)-3-(2-hydroxyacetamido) piperidine-3-carboxylic acid] | < 2 µM
14 | COc1c(-c2ccccc2)ccc2c(-n3ccnc3)cc(-c3ccccc3)nc12 [I-51] | > 30 µM
15 | O=C(O)c1ccccc1Oc1cc(-n2ccnc2)c2ccc(Cl)cc2n1 [I-283] | > 30 µM
16 | CC(CNc1cc(-n2ccnc2)c2ccc(Cl)c(Cl)c2n1)S(N)(=O)=O (stereo not drawn) [I-210] | 2 to 30 µM
17 | O=S(=O)(O)CNc1cc(-n2ccnc2)c2ccc(Cl)c(Cl)c2n1 [I-157] | 2 to 30 µM
18 | O=C(O)c1cccc(-c2cc(-n3ccnc3)c3ccc(Cl)cc3n2)c1 [I-6, 3-(7-Chloro-4-(1H-imidazol-1-yl)quinolin-2-yl)benzoic acid] | < 2 µM
19 | Cc1ccc2c(-c3cn[nH]c3)cc(NCCS(N)(=O)=O)nc2c1 [I-266] | > 30 µM
20 | Brc1ccc2nccc(-n3ccnc3)c2c1 [I-409] | > 30 µM
21 | O=C(O)C1CCCC(Nc2cc(-n3ccnc3)c3ccc(Cl)cc3n2)C1 (stereo not drawn) [I-366] | 2 to 30 µM
22 | OC[C@H](Nc1cc(-n2ccnc2)c2ccc(Cl)c(Cl)c2n1)c1ccccc1 [I-247] | 2 to 30 µM

Row | SMILES | IC50
23 | O=C(O)CNC(=O)[C@@H]1CN(c2cc(-c3cn[nH]c3)c3ccc(Cl)c(Cl)c3n2)CCO1 [I-341] | < 2 µM
24 | CC(C)[C@H](NC(=O)C[C@@H]1CCCN1c1cc(-n2ccnc2)c2ccc(Cl)c(Cl)c2n1)C(=O)O [I-338] | < 2 µM
25 | C[C@@H](Nc1cc(-c2cn[nH]c2)nc2c(Cl)c(Cl)ccc12)C(=O)O [I-286] | < 2 µM
26 | O=C(O)[C@@H]1C[C@@H](Oc2ccccc2)CN1c1cc(-n2ccnc2)c2ccc(Cl)c(Cl)c2n1 [I-362] | > 30 µM
27 | Cn1cnc(S(=O)(=O)NC2CCCN(c3cc(-n4ccnc4)c4ccc(Cl)cc4n3)C2)c1 (stereo not drawn) [I-103] | 2 to 30 µM
28 | CNS(=O)(=O)CCNc1cc(-n2ccnc2)c2ccc(Cl)c(Cl)c2n1 [I-201] | < 2 µM
29 | O=C(O)[C@@H]1CN(c2cc(-n3ccnc3)c3ccc(Cl)cc3n2)CC[C@H]1O [I-130] | 2 to 30 µM
30 | O=C(O)[C@@H]1CCCCN1c1cc(-c2cn[nH]c2)c2ccc(Cl)c(Cl)c2n1 [I-128] | 2 to 30 µM
31 | Cc1cc(N(C)CC(N)=O)c2ccc(Cl)c(Cl)c2n1 [I-314] | > 30 µM
32 | NS(=O)(=O)CCNc1cc(-c2cn[nH]c2)c2ccc(Cl)c(Cl)c2n1 [I-203] | < 2 µM
33 | Brc1ccc2c(-n3ccnc3)cc(-c3ccccc3)nc2c1 [I-424, 7-bromo-4-(1H-imidazol-1-yl)-2-phenylquinoline] | 2 to 30 µM
34 | CS(=O)(=O)Nc1cccc(-c2cc(-n3ccnc3)c3ccc(Cl)cc3n2)c1 [I-10, N-(3-(7-chloro-4-(1H-imidazol-1-yl)quinolin-2-yl)phenyl)methanesulfonamide] | 2 to 30 µM
35 | O=C(O)C1CN(c2cc(-n3ccnc3)c3ccc(Cl)c(Cl)c3n2)CCN1 (stereo not drawn) [I-79, 4-(7,8-Dichloro-4-(1H-imidazol-1-yl)quinolin-2-yl)piperazine-2-carboxylic acid] | < 2 µM
36 | CC(C)[C@H](CS(=O)(=O)O)Nc1cc(-n2ccnc2)c2ccc(Cl)cc2n1 [I-163] | > 30 µM
37 | CC(C)(C)OC(=O)NS(=O)(=O)N1CCOC(CNc2cc(-n3ccnc3)c3ccc(Cl)c(Cl)c3n2)C1 (stereo not drawn) [I-398, tert-butyl ((2-(((7,8-dichloro-4-(1H-imidazol-1-yl)quinolin-2-yl)amino)methyl)morpholino)sulfonyl)carbamate] | 2 to 30 µM
38 | COC(=O)CCS(=O)(=O)NC[C@@H]1CCCN1c1cc(-n2ccnc2)c2ccc(Cl)c(Cl)c2n1 [I-390] | 2 to 30 µM
39 | O=C(O)[C@H]1CCCN1C(=O)C[C@@H]1CCCN1c1cc(-n2ccnc2)c2ccc(Cl)c(Cl)c2n1 [I-386] | < 2 µM
40 | CNC(=O)[C@@H]1CCCN1c1cc(-n2ccnc2)c2ccc(Cl)c(Cl)c2n1 [I-450] | 2 to 30 µM
41 | O=C(O)CCc1cc(-c2cn[nH]c2)c2ccc(Cl)c(Cl)c2n1 [I-270, 3-(7,8-dichloro-4-(1H-pyrazol-4-yl)quinolin-2-yl)propanoic acid] | < 2 µM
42 | Fc1ccc(Cc2cc(-n3ccnc3)c3ccc(Br)cc3n2)cc1 [I-275] | > 30 µM
43 | OC1(CNc2cc(-n3ccnc3)c3ccc(Cl)c(Cl)c3n2)CC1 [I-245] | < 2 µM
44 | Cc1cc(N2CCCNC(=O)C2)c2ccc(Cl)c(Cl)c2n1 [I-305] | > 30 µM

Same assay, conditions: Table 3, read-out: cGAS Inhibition Results IC50

Row | SMILES | IC50
45 | O=C(O)C1CN(C(=O)[C@@H]2CCCN2c2cc(-n3ccnc3)c3ccc(Cl)c(Cl)c3n2)CCO1 (stereo partly drawn) [I-549] | < 2 µM
46 | COc1cccc2c(-c3cn[nH]c3)cc(N3CCC[C@H]3COCCC(=O)O)nc12 [I-859] | 2 to 30 µM
47 | Clc1ccc2c(-n3ccnc3)cc(N3CCC[C@H]3c3nn[nH]n3)nc2c1Cl [I-465] | < 2 µM
48 | COC(=O)[C@@H]1C[C@@H](N)CN1c1cc(-n2ccnc2)c2ccc(Cl)c(Cl)c2n1 [I-589] | 2 to 30 µM
49 | COC(=O)[C@@H]1C[C@@H](O)CN1c1cc(-n2ccnc2)c2ccc(Cl)c(Cl)c2n1 [I-472] | 2 to 30 µM
50 | O=C(O)CCOC[C@@H]1CCCN1c1ccc2ccc(Cl)c(Cl)c2n1 [I-827] | > 30 µM
51 | O=C(O)C#CC[C@@H]1CCCN1c1cc(-n2ccnc2)c2ccc(Cl)c(Cl)c2n1 [I-819, (S)-4-(1-(7,8-dichloro-4-(1H-imidazol-1-yl)quinolin-2-yl)pyrrolidin-2-yl)but-2-ynoic acid] | < 2 µM
52 | O=C(O)CCO[C@H]([C@@H]1CCCN1c1cc(-n2ccnc2)c2ccc(Cl)c(Cl)c2n1)C(F)(F)F [I-721] | 2 to 30 µM
53 | CC(C)N(CCCOc1ccc(Cl)cc1C(=O)O)c1cc(-n2ccnc2)c2ccc(Cl)c(Cl)c2n1 [I-848, 5-chloro-2-(3-((7,8-dichloro-4-(1H-imidazol-1-yl)quinolin-2-yl)(isopropyl)amino)propoxy) benzoic acid] | 2 to 30 µM
54 | O=C(O)CCOC[C@H]1CCCCN1c1cc(-n2ccnc2)c2ccc(Cl)c(Cl)c2n1 [I-790] | 2 to 30 µM
55 | CC(C)(C)c1ccc2c(-n3ccnc3)cc(N3CCC[C@H]3COCCC(=O)O)nc2c1 [I-858] | > 30 µM
56 | NS(=O)(=O)CC1CCCN1C(=O)C[C@@H]1CCCN1c1cc(-n2ccnc2)c2ccc(Cl)c(Cl)c2n1 (stereo partly drawn) [I-534] | 2 to 30 µM
57 | O=C(O)CO[C@@H]1CCN(c2cc(-n3ccnc3)c3ccc(Cl)c(Cl)c3n2)C1 [I-766] | < 2 µM
58 | COC(=O)[C@@H]1C[C@@H](OCCC(=O)O)CN1c1cc(-n2ccnc2)c2ccc(Cl)c(Cl)c2n1 [I-869] | 2 to 30 µM
59 | CC(C)[C@H](NC(=O)[C@@H]1CCCN1c1cc(-n2ccnc2)c2ccc(Cl)c(Cl)c2n1)C(=O)O [I-550] | 2 to 30 µM
60 | CN(CCNC(=O)CCC(=O)O)c1cc(-n2ccnc2)c2ccc(Cl)c(Cl)c2n1 [I-616] | < 2 µM
61 | COC(=O)[C@@H]1C[C@H](OCCC(=O)O)CN1c1cc(-n2ccnc2)c2ccc(Cl)c(Cl)c2n1 [I-871] | 2 to 30 µM
62 | COC(=O)c1cccc(S(=O)(=O)NCCN(C)c2cc(-n3ccnc3)c3ccc(Cl)c(Cl)c3n2)c1 [I-609] | > 30 µM
63 | OC([C@@H]1CCCN1c1cc(-n2ccnc2)c2ccc(Cl)c(Cl)c2n1)(C(F)(F)F)C(F)(F)F [I-656, (S)-2-(1-(7,8-dichloro-4-(1H-imidazol-1-yl)quinolin-2-yl)pyrrolidin-2-yl)-1,1,1,3,3,3-hexafluoropropan-2-ol] | > 30 µM
64 | CN(CC(=O)NCCC(=O)O)c1cc(-n2ccnc2)c2ccc(Cl)c(Cl)c2n1 [I-562] | < 2 µM
65 | COC(=O)CCO[C@@H]1CCN(c2cc(-n3ccnc3)c3ccc(Cl)c(Cl)c3n2)C1 [I-769] | 2 to 30 µM

Same assay, conditions: cGAS Inhibition Results IC50, Table 2

Row | SMILES | IC50
66 | CCOP(=O)(O)Cc1cc(-n2ccnc2)c2ccc(Cl)c(Cl)c2n1 [I-252, Ethyl hydrogen (7,8-dichloro-4-(1H-imidazol-1-yl)quinolin-2-yl)methylphosphonate] | 2 to 30 µM
